Results from patent publication US10059655B2, “Lipids and lipid compositions for the delivery of active agents” (priority 2013, dated 2018).

System: mEPO
Assay: Mouse EPO ELISA after IV injection of encapsulated mEPO mRNA
Format: in vivo
Conditions: 0.2 mpk, ob/ob mice, @ 24 h
Description: A rat anti-mouse Erythropoietin antibody is coated on 384-well white microtiter plates overnight, then blocked for assay. Then, plasma samples are diluted in a casein-based sample diluent and incubated on the plate with buffer controls and mouse EPO standards. The plate is then washed to remove unbound material. A biotinylated rat anti-mouse Erythropoietin antibody is then added to the plate to detect mouse EPO bound by the capture antibody. The plate is washed again and a streptavidin-conjugated horseradish peroxidase reagent is incubated on the plate. A third wash step is performed and a chemiluminescent reagent is added to the plate and immediately read by a capable plate reader using all wavelengths and a 50 millisecond integration time. Unknown samples are interpolated off the mouse EPO standard curve.

CCCCC/C=C\C/C=C\CCCCCCCC(=O)OCC(COC(=O)CCCCCCC/C=C\C/C=C\CCCCC)COC(=O)C1(C)CCN(C)C1 (stereo not shown) [Example 1, (9Z,9′Z,12Z,12′Z)-2-(((1,3-dimethylpyrrolidine-3-carbonyl)oxy)methyl)propane-1,3-diyl bis(octadeca-9,12-dienoate)]
Expression of protein following IV injection of encapsulated mRNA: mEPO: 22.5 ng/mL
